Measured values published in the supplement of paper PMC6045584.
± gives the standard deviation of the averaged measurements.

Key:
FORETINIB = compound: COc1cc2c(Oc3ccc(NC(=O)C4(C(=O)Nc5ccc(F)cc5)CC4)cc3F)ccnc2cc1OCCCN1CCOCC1 [FORETINIB]; assay: surviving fraction relative to DMSO-only wells; higher = less growth inhibition; settings: exposure time: 5 days
In short: (§1)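 Log-phase tumour cells were seeded at 250–500 per well in 384-well plates and, from 24 hours after seeding, exposed continuously for five days to inhibitors at 0.5, 1, 5, 10, 50, 100, 500 and 1000 nM. Surviving fraction is CellTiter-Glo luminescence normalised to the median of DMSO-only wells. Luminescence was measured after 10 minutes at room temperature, and only lines screened three times with replicate Pearson r >0.7 and median Z' >0.3 were kept.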

TEMOZOLOMIDE = compound: Cn1nnc2c(C(N)=O)ncn2c1=O [TEMOZOLOMIDE]; assay: as above; settings: exposure time: 5 days
In short: as §1

Test System | surviving fraction (FORETINIB; 0.5 nM) | surviving fraction (FORETINIB; 1 nM) | surviving fraction (FORETINIB; 5 nM) | surviving fraction (FORETINIB; 10 nM) | surviving fraction (FORETINIB; 50 nM) | surviving fraction (FORETINIB; 100 nM) | surviving fraction (FORETINIB; 500 nM) | surviving fraction (FORETINIB; 1000 nM) | surviving fraction (TEMOZOLOMIDE; 0.5 nM) | surviving fraction (TEMOZOLOMIDE; 1 nM) | surviving fraction (TEMOZOLOMIDE; 5 nM) | surviving fraction (TEMOZOLOMIDE; 10 nM) | surviving fraction (TEMOZOLOMIDE; 50 nM) | surviving fraction (TEMOZOLOMIDE; 100 nM) | surviving fraction (TEMOZOLOMIDE; 500 nM) | surviving fraction (TEMOZOLOMIDE; 1000 nM)
CCK81 LARGE INTESTINE | 0.867 ± 0.085 | 0.729 ± 0.084 | 0.719 ± 0.059 | 0.726 ± 0.13 | 0.793 ± 0.065 | 0.757 ± 0.025 | 0.559 ± 0.043 | 0.338 ± 0.083 | 0.766 ± 0.075 | 0.729 ± 0.06 | 0.744 ± 0.041 | 0.771 ± 0.024 | 0.775 ± 0.083 | 0.745 ± 0.048 | 0.789 ± 0.033 | 0.817 ± 0.055
G292 BONE | 1.01 ± 0.049 | 0.963 ± 0.051 | 1.04 ± 0.015 | 1.02 ± 0.046 | 0.905 ± 0.03 | 0.839 ± 0.023 | 0.351 ± 0.018 | 0.171 ± 0.02 | 1.01 ± 0.015 | 0.9995 ± 0.0082 | 0.981 ± 0.037 | 1.05 ± 0.018 | 1.04 ± 0.062 | 1.02 ± 0.025 | 0.986 ± 0.048 | 0.992 ± 0.029
HCC38 BREAST | 1.05 ± 0.18 | 1.01 ± 0.34 | 0.885 ± 0.2 | 1.11 ± 0.24 | 1.03 ± 0.41 | 0.901 ± 0.15 | 0.521 ± 0.077 | 0.428 ± 0.12 | 1.34 ± 0.19 | 1.25 ± 0.04 | 1.31 ± 0.13 | 1.39 ± 0.032 | 1.33 ± 0.11 | 1.32 ± 0.06 | 1.3 ± 0.26 | 1.33 ± 0.11
HCC70 BREAST | 1.08 ± 0.04 | 1.13 ± 0.023 | 1.13 ± 0.043 | 1.11 ± 0.046 | 1.17 ± 0.066 | 1.2 ± 0.044 | 1.1 ± 0.1 | 0.718 ± 0.16 | 0.984 ± 0.016 | 1.04 ± 0.11 | 1.07 ± 0.064 | 1.08 ± 0.054 | 1.06 ± 0.079 | 1.15 ± 0.095 | 1.06 ± 0.09 | 1.09 ± 0.086
HMLE3 BREAST | 1.08 ± 0.031 | 1.15 ± 0.075 | 1.11 ± 0.023 | 1.07 ± 0.011 | 0.913 ± 0.1 | 0.86 ± 0.054 | 0.558 ± 0.076 | 0.168 ± 0.023 | 1.01 ± 0.053 | 1.12 ± 0.085 | 1.01 ± 0.11 | 1.04 ± 0.021 | 1.03 ± 0.039 | 1.03 ± 0.026 | 1.03 ± 0.044 | 1.15 ± 0.079
HMT3552 BREAST | 1.02 ± 0.069 | 1.03 ± 0.05 | 1.02 ± 0.017 | 0.928 ± 0.12 | 0.955 ± 0.058 | 0.971 ± 0.013 | 0.599 ± 0.034 | 0.114 ± 0.0027 | 1.09 ± 0.094 | 1.07 ± 0.015 | 1.05 ± 0.038 | 1.09 ± 0.071 | 1.15 ± 0.06 | 1.19 ± 0.063 | 1.09 ± 0.039 | 1.15 ± 0.022
HS57T BREAST | 1.05 ± 0.066 | 1.09 ± 0.08 | 1.15 ± 0.03 | 1.07 ± 0.045 | 1.06 ± 0.06 | 1.02 ± 0.083 | 0.515 ± 0.039 | 0.47 ± 0.024 | 0.907 ± 0.067 | 0.947 ± 0.056 | 1.01 ± 0.051 | 1.04 ± 0.049 | 1.02 ± 0.033 | 1.03 ± 0.074 | 0.93 ± 0.058 | 0.948 ± 0.071
HS578T BREAST | 1.01 ± 0.084 | 1.09 ± 0.079 | 1.2 ± 0.19 | 1.18 ± 0.038 | 1.16 ± 0.17 | 1.12 ± 0.21 | 0.655 ± 0.088 | 0.585 ± 0.039 | 0.927 ± 0.11 | 0.886 ± 0.094 | 0.91 ± 0.15 | 0.913 ± 0.054 | 1.05 ± 0.1 | 0.916 ± 0.074 | 0.936 ± 0.12 | 0.942 ± 0.12
